Earlier results on one molecule are cited in patent US20090036541A1, “Applicator and chemical combination for better topical anesthesia” (priority 2007, published 2009).

For the data set the following is noted: compared with lidocaine.

With `CCCCNc1ccc(C(=O)OCCN(C)C)cc1` [tetracaine], the “potency relative to lidocaine” value is “ten-fold”.
